# Test results published in US9457057B2, “Methods for the prevention and treatment of burn injuries and secondary complications” (The General Hospital Corporation, priority 2009, dated 2016).
# Tests used:
# [1] = tested on: caspase-3; experiment: Activated caspase protein levels in liver by Western blots (Example 2); format: in vivo, mouse; conditions: C57BL mice, 30% TBSA burn, 5 mg/kg daily; day 3 and 7 post-burn
# Experimental: (§1) Systemic inflammatory response syndrome (SIRS) and multiple organ failure (MOF) are leading causes of morbidity and mortality in severe burn patients. In this Example, the effects of the aromatic-cationic peptides of the invention on liver damage in a mouse model of burn injury were examined. Six to eight week old male C57BL mice were subjected to 30% total body surface area (TBSA) burn injury and subsequently injected daily with saline or SS-31 peptide (5 mg/kg body weight). A weight- and time-matched sham-burn group subjected to lukewarm (˜37° C.) water but otherwise treated exactly the same served as controls (FIG. 3). The liver tissues were collected 1, 3, and 7 days after burn injury treatment and used to examine apoptosis by TUNEL method, activated caspase protein levels by Western blots, and caspase activity by an enzymatic reaction assay.
# [2] = tested on: Sprague-Dawley rats; experiment: Wound contraction after burn injury, area of the scab (Example 3); format: in vivo, rat; conditions: 65° C. water 25 sec, 1 mg IP one hour prior to burn, 1 mg topical, 1 mg IP every 12 h for 72 h, time points ≧8 days post-burn, p=0.06 by ANOVA
# Experimental: Sprague-Dawley rats (male, 300-350 g) were pre-treated with 1 mg SS-31 peptide administered IP (this corresponds to about 3 mg/kg) one hour prior to burn (65° C. water for 25 sec on the lower back), followed by topical treatment (1 mg on top of the wound), and 1 mg SS-31 peptide administered IP every 12 h for 72 h. Wounds were observed up to ˜3 weeks post-burn. In general, the wounds took the appearance of a hard scab, and for the purpose of this experiment, the area of the scab was quantified as a measure of wound size. […] Treatment with SS-31 slowed the wound contraction, which indicates the burn injury was less severe compared to burns in animals without the peptide treatment. As such, the aromatic-cationic peptides of the invention are useful in methods of treating wounds associated with a burn injury.
# [3] = tested on: caspase-3; experiment: Liver caspase activity by an enzymatic reaction assay (Example 2); format: in vivo, mouse; conditions: C57BL mice, 30% TBSA burn, 5 mg/kg daily
# From the text: FIG. 6 is a graph showing caspase-3 activity from the various treatment groups of Example 2.
# as §1
# [4] = tested on: protein oxidation; experiment: Liver protein oxidation by western blot (Example 2); format: in vivo, mouse; conditions: C57BL mice, 30% TBSA burn, 5 mg/kg daily
# From the text: FIG. 7 is a photograph of a western blot analysis showing protein oxidation from the various treatment groups of Example 2.
# as §1
# [5] = tested on: Sprague Dawley rats; experiment: Indirect calorimetry 6 days after burn injury, 7-day infusion (Example 7); format: in vivo, rat; conditions: III degree 30% TBSA burns, 2 mg/kg priming then 4 mg/kg/day infused 7 days
# Experimental: (§2) Methods. Sprague Dawley rats were randomly divided into 5 groups; sham (S), sham with saline treatment (SSal), sham with SS-31 treatment (SPep), burn with saline treatment (BSal) and burn with SS-31 treatment (BPep). In burn group, the back of animal was immersed into 100° C. water for 12 seconds to produce III degree 30% TBSA burns under general anesthesia. Sham burn was produced by immersing the lukewarm water in the same manner. Both groups of animals received 40 ml/kg intraperitoneal saline injection for the resuscitation following the injury. A venous catheter was placed surgically into the right jugular vein subsequent to sham or burn injury. SS-31 (2 mg/kg) or saline was injected as priming, and infused for 7 days (4 mg/kg/day) using osmotic pump (Durect, CA). […] The indirect calorimetry was performed for 24 hours at 6 days after burn injury in a TSE Indirect Calorimetry System (TSE Co. Germany), and VO2, VCO2 and energy expenditure were recorded every six minutes. Interscapullar brown adipose tissue was collected after the indirect calorimetry, and UCP-1 expression in the brown adipose tissue was evaluated by Western blot.
# [6] = tested on: ATP synthesis rate (reaction PCr → γATP) in hindlimb skeletal muscle; experiment: In vivo 31P-NMR saturation transfer, ATP synthesis rate (reaction PCr→γATP), mouse burn model (Example 8)
# Experimental: (§3) Materials and Methods. Male 6-week-old CD1 mice weighing 20-25 g were anesthetized by intraperitoneal (i.p.) injection of 40 mg/kg pentobarbital sodium. The left hind limb of all mice in all groups was shaved. Each burned mouse was subjected to a nonlethal scald injury of 3-5% total body surface area (TBSA) by immersing its left hind limb in 90° C. water for 3 sec.
# (§4) NMR spectroscopy is described in detail in Padfield, et al., Proc Natl Acad Sci USA 102: 5368-5373 (2005). Briefly, mice were randomized into burn, burn+SS-31 peptide, control, and control+peptide groups. The SS-31 peptide (3 mg/kg) was injected intraperitoneally at 30 min prior to burn and a second injection immediately after the burn. NMR experiments were performed in a horizontal bore magnet (proton frequency 400 MHz, 21 cm diameter, Magnex Scientific) using a Bruker Avance console. A 90° pulse was optimized for detection of phosphorus spectra (repetition time 2 s, 400 averages, 4K data points). Saturation 90°-selective pulse trains (duration 36.534 ms, bandwidth 75 Hz) followed by crushing gradients were used to saturate the γ-ATP peak. The same saturation pulse train was also applied downfield of the inorganic phosphate (Pi) resonance, symmetrically to the γ-ATP resonance. T1 relaxation times of Pi and phosphocreatine (PCr) were measured using an inversion recovery pulse sequence in the presence of γ-ATP saturation. An adiabatic pulse (400 scans, sweep with 10 KHz, 4K data) was used to invert Pi and PCr, with an inversion time between 152 ms and 7651 ms.
# [7] = tested on: redox state of the gastrocnemius muscle; experiment: Redox state of gastrocnemius muscle by nitroxide EPR after local burn (Examples 4 and 8); format: in vivo, mouse; conditions: mice
# Experimental: A clinically relevant murine nonlethal local burn injury model was used to address whether aromatic-cationic peptides can prevent/attenuate the adverse effects of burn injury on mitochondrial dysfunction and ER stress. The redox state of the gastrocnemius muscle immediately below a local cutaneous burn (90° for 3 sec) was evaluated by nitroxide EPR.
# Next, the effect of SS-31 peptide treatment administered IP 30 min before burn, and immediately after burn (3 mg/kg each dose) was tested.
# as §3
# EPR spectroscopy is described in detail in Khan et al. “Burn Trauma in skeletal muscle results in oxidative stress as assessed by in vivo electron paramagnetic resonance.” Mol Med Reports 1: 813-819 (2008). Briefly, mice were randomized into burn, burn+SS-31 peptide and control groups. The SS-31 peptide (3 mg/kg) was injected intraperitoneally at 0, 3, 6, 24, and 48 hours post-burn. EPR measurements were carried out with a 1.2-GHz EPR spectrometer equipped with a microwave bridge and external loop resonator specially designed for in vive experiments. The optimal spectrometer parameters were: incident microwave power, 10 mW; magnetic field center, 400 gauss; modulation frequency, 27 kHz. The decay kinetics of intravenously-injected nitroxide (150 mg/kg) were measured at the various time points, which indicated the mitochondrial redox status of the muscle.
# [8] = tested on: Sprague Dawley rats; experiment: Indirect calorimetry after burn injury in a rat model (Example 1); format: in vivo; conditions: 30% TBSA full thickness burn, SS-31 2 mg/kg IV q12h for three days, n = 3
# Experimental: Sprague Dawley rats were randomized into three groups; sham-burn (SB), burn with saline treatment (B) and burn with peptide treatment (BP). Catheters were surgically placed into jugular vein and carotid artery. B and BP animals received 30% total body surface area full thickness burns by immersing the dorsal part into 100° C. water for 12 seconds with immediate fluid resuscitation. BP animals received IV injection of SS-31 (2 mg/kg every 12 h) for three days (FIG. 1). The EE of the animals were constantly monitored for 12 hours in a TSE Indirect Calorimetry System (TSE Co. Germany).
# [9] = tested on: apoptosis in the liver; experiment: Liver apoptosis by TUNEL method after burn injury (Example 2); format: in vivo, mouse; conditions: C57BL mice, 30% TBSA burn, 5 mg/kg daily; days 1, 3, 7, effects most obvious on day 7 post-burn
# Experimental: as §1
# [10] = tested on: mitochondrial aconitase; experiment: Mitochondrial aconitase activity in 5% TBSA mice burn model (Example 9); format: in vivo, mouse; conditions: burned animals
# From the text: Mitochondrial aconitase is part of the TCA cycle and its activity has been directly correlated with the TCA flux. Moreover, its activity is inhibited by ROS and thus it is considered as an index of oxidative stress. Here we present the local and systematic effects of burn on the mitochondrial aconitase activity using a 5% TBSA mice burn model. The effects of a mitochondrial peptide (SS-31) had been also examined.
# [11] = tested on: UCP-1; experiment: UCP-1 expression in brown adipose tissue by Western blot (Example 7); format: in vivo, rat; conditions: rats, III degree 30% TBSA burns; 2 mg/kg priming then 4 mg/kg/day infused 7 days; p=0.057
# Experimental: as §2
# [12] = tested on: ATP synthesis rate (Pi→γATP) in hindlimb skeletal muscle; experiment: In vivo 31P-NMR saturation transfer, ATP synthesis rate (Pi→γATP), mouse burn model (Examples 8 and 10)
# Experimental: as §3
# as §4, with “An adiabatic pulse (400 scans, sweep with 10 KHz, 4K data) was used to invert Pi and PCr, with an inversion time between 152 ms and 7651 ms.” left out
# Values are means±SE; ΔM/M0 is the fractional change in Pi magnetization as a result of saturation transfer; T1obs is the observed spin lattice relaxation time of Pi during γATP saturation in seconds; ATP synthesis is calculated as [Pi]×k; [Pi] is the concentration of Pi extrapolated from the baseline NMR spectrum, comparing Pi and γATP peaks and ATP concentration measured with bioluminescence assay; k is calculated as (1/T1obs)×(ΔM/M0); P-values (unpaired Student's t-test) are for comparisons between experimental and control groups; * indicates only one dose of SS-31 peptide (3 mg/kg) was injected to animals immediately after burn.
# [13] = Controls + Peptide (n = 5), unburned CD1 mice, 3 mg/kg IP two injections
# [14] = 3-5% TBSA burn, 3 mg/kg IP, 6 h after burn, p<0.05, 3 mg/kg
substance,measurement,setting,value
"D-Arg-2′,6′-dimethyltyrosine-Lys-Phe-NH2 [SS-31]",activated form of caspase-3 protein levels in liver,[1],reversed the increase in the activated form of caspase-3 protein levels on day 3 and 7 post-burn to the levels similar to those of sham control animals
same,rate of wound contraction (area of the scab),[2],slower rate of wound contraction
same,caspase activity in liver,[3]; day 3,trend for the increased caspase activity following burn injury to reverse
same,caspase activity in liver,[3]; post-burn day 7,reduced the caspase activity to a level that was statistically not different from that of sham control group
same,protein oxidation following burn injury,[4],decreased protein oxidation
same,"VO2, BPep group compared to BSal group",[5]; p<0.01,significantly attenuated
same,"VCO2, BPep group compared to BSal group",[5]; p<0.05,significantly attenuated
same,"energy expenditure, BPep group compared to BSal group",[5]; p<0.05,significantly attenuated
same,PCr,"[6]; Burn + Peptide (n = 8), 3 mg/kg IP 30 min prior to burn and immediately after the burn",3.25 ± 0.29 µmol/g
same,ATP synthesis rate (reaction PCr → γATP),[6]; [13],0.50 ± 0.06 µmol/g/s
same,PCr,[6]; [13],3.76 ± 0.51 µmol/g
same,redox status of burn+peptide group as compared to burn (EPR),[7]; [14],significant increase (recovery) in the redox status
same,redox status of burn+peptide group as compared to control (EPR),[7]; [14],significant decrease in the redox status
same,rate of nitroxide reduction in gastrocnemius muscle,"[7]; local burn, 3 mg/kg IP 30 min before burn and immediately after burn, 6 h timepoint",significantly increased the rate of nitroxide reduction
same,RER,[8],0.669 ± 0.005
same,number of liver cells undergoing apoptosis (TUNEL),[9],minimized the number of cells undergoing apoptosis
same,mitochondrial aconitase activity,[10],decreased mitochondrial aconitase activity up to the control levels
same,"UCP-1 expression in brown adipose tissue, decrease in BPep group compared to BSal group",[11],32%
same,Pi,"[12]; Burn + Peptide (n = 8), 3 mg/kg IP 30 min before burn and immediately after burn, 6 hours after burn",2.93 ± 0.56 µmol/g
same,Pi,"[12]; Burn + Peptide* (n = 8), only one dose 3 mg/kg immediately after burn",1.41 ± 0.26 µmol/g
same,Pi,[12]; [13],5.49 ± 0.28 µmol/g
